US6358885B1, “Substituted phenylheterocyclic herbicides” (Mississippi State University, priority 1992, dated 2002)

Legend:
chickweed [1] = assay: Test B preemergence/postemergence greenhouse plant response rating 0 to 10; assay type: in vivo, Stellaria media; conditions: Rate 10 g/ha, 0 to 10 scale
Outline: (§1)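 Postemergence treatment of plants two to eighteen cm tall ran alongside preemergence treatment of planted seed, each using compound in a non-phytotoxic solvent.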

wild oat = assay: as above; assay type: in vivo, Avena fatua; conditions: POSTEMERGENCE, 0 to 10 scale
Outline: as §1

chickweed [2] = assay: Test C preemergence/postemergence greenhouse plant response rating 0 to 100; assay type: in vivo, Stellaria media; conditions: POSTEMERGENCE
Outline: (§2)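 Compounds in non-phytotoxic solvent applied preemergence to sandy loam one day after planting, postemergence at the 1–4 leaf stage, or to ~2.5 cm floodwater over silt loam.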

wild buckwheat [3] = assay: Test B preemergence/postemergence greenhouse plant response rating 0 to 10; assay type: in vivo, Polygonum convolvulus; conditions: 0 to 10 scale
Outline: as §1

lambsquarters = assay: Test C preemergence/postemergence greenhouse plant response rating 0 to 100; assay type: in vivo, Chenopodium album; conditions: POSTEMERGENCE
Outline: as §2

cotton = assay: as above; assay type: in vivo, Gossypium hirsutum; conditions: POSTEMERGENCE
Outline: as §2

velvetleaf = assay: as above; assay type: in vivo, Abutilon theophrasti; conditions: POSTEMERGENCE
Outline: as §2

sorghum = assay: Test B preemergence/postemergence greenhouse plant response rating 0 to 10; assay type: in vivo, Sorghum bicolor; conditions: 0 to 10 scale
Outline: as §1

downy brome = assay: Test C preemergence/postemergence greenhouse plant response rating 0 to 100; assay type: in vivo, Bromus tectorum; conditions: POSTEMERGENCE
Outline: as §2

giant foxtail = assay: Test B preemergence/postemergence greenhouse plant response rating 0 to 10; assay type: in vivo, Setaria faberii; conditions: 0 to 10 scale
Outline: as §1

duck salad = assay: Test C flood test plant response rating 0 to 100; assay type: in vivo, Heteranthera limosa
Outline: as §2

sugar beet = assay: Test C preemergence/postemergence greenhouse plant response rating 0 to 100; assay type: in vivo, Beta vulgaris; conditions: POSTEMERGENCE
Outline: as §2

soybean = assay: as above; assay type: in vivo, Glycine max; conditions: POSTEMERGENCE
Outline: as §2

ryegrass = assay: as above; assay type: in vivo, Lolium multiflorum; conditions: POSTEMERGENCE
Outline: as §2

corn = assay: Test B preemergence/postemergence greenhouse plant response rating 0 to 10; assay type: in vivo, Zea mays; conditions: for Plant response rating, Corn: 0 to 10 scale
Outline: as §1

wild buckwheat [4] = assay: Test C preemergence/postemergence greenhouse plant response rating 0 to 100; assay type: in vivo, Polygonum convolvulus; conditions: POSTEMERGENCE
Outline: as §2

barley = assay: as above; assay type: in vivo, Hordeum vulgare; conditions: POSTEMERGENCE
Outline: as §2

cheatgrass = assay: Test B preemergence/postemergence greenhouse plant response rating 0 to 10; assay type: in vivo, Bromus secalinus; conditions: for Plant response rating, Cheatgrass: 0 to 10 scale
Outline: as §1

SMILES: CCCN1C(=O)COc2cc(F)c(-c3nn4c(c3Cl)CCCC4)cc21 [Compound 32]
- Plant response rating, Chickweed (chickweed [1]; POSTEMERGENCE): 10
- Plant response rating, Chickweed (chickweed [1]; PREEMERGENCE): 0
- Plant response rating, Wild oat (wild oat; Rate 10 g/ha): 4
- Plant response rating, Wild oat (wild oat; Rate 50 g/ha): 4
- Plant response rating, Chickweed (chickweed [2]; 62 g/ha, 0 to 100 scale): 100
- Plant response rating (0 to 100), Chickweed (chickweed [2]; Rate 1 g/ha): 30
- Plant response rating (0 to 100), Chickweed (chickweed [2]; Rate 4 g/ha): 60
- Plant response rating (0 to 100), Chickweed (chickweed [2]; Rate 16 g/ha): 90
- Plant response rating, Wild buckwheat (wild buckwheat [3]; POSTEMERGENCE, Rate 10 g/ha): 9
- Plant response rating, Wild buckwheat (wild buckwheat [3]; POSTEMERGENCE, Rate 50 g/ha): 10
- Plant response rating, Wild buckwheat (wild buckwheat [3]; PREEMERGENCE, Rate 50 g/ha): 8
- Plant response rating Lambsquarters (lambsquarters; 62 g/ha, 0 to 100 scale): 100
- Plant response rating (0 to 100), Lambsquarters (lambsquarters; Rate 1 g/ha): 70
- Plant response rating (0 to 100), Lambsquarters (lambsquarters; Rate 4 g/ha): 80
- Plant response rating (0 to 100), Lambsquarters (lambsquarters; Rate 16 g/ha): 100
- Plant response rating, Cotton (cotton; 62 g/ha, 0 to 100 scale): 100
- Plant response rating (0 to 100), Cotton (cotton; Rate 1 g/ha): 95
- Plant response rating (0 to 100), Cotton (cotton; Rate 4 g/ha): 100
- Plant response rating (0 to 100), Cotton (cotton; Rate 16 g/ha): 100
- Plant response rating, Velvetleaf (velvetleaf; 62 g/ha, 0 to 100 scale): 100
- Plant response rating (0 to 100), Velvetleaf (velvetleaf; Rate 1 g/ha): 100
- Plant response rating (0 to 100), Velvetleaf (velvetleaf; Rate 16 g/ha): 100
- Plant response rating, Sorghum (sorghum; POSTEMERGENCE, Rate 10 g/ha): 6
- Plant response rating, Sorghum (sorghum; POSTEMERGENCE, Rate 50 g/ha): 6
- Plant response rating, Sorghum (sorghum; PREEMERGENCE, Rate 50 g/ha): 2
- Plant response rating Downy Brome (downy brome; 62 g/ha, 0 to 100 scale): 50
- Plant response rating (0 to 100), Downy Brome (downy brome; Rate 1 g/ha): 20
- Plant response rating (0 to 100), Downy Brome (downy brome; Rate 4 g/ha): 30
- Plant response rating (0 to 100), Downy Brome (downy brome; Rate 16 g/ha): 40
- Plant response rating, Giant foxtail (giant foxtail; POSTEMERGENCE, Rate 10 g/ha): 4
- Plant response rating, Giant foxtail (giant foxtail; POSTEMERGENCE, Rate 50 g/ha): 5
- Plant response rating, Giant foxtail (giant foxtail; PREEMERGENCE, Rate 10 g/ha): 2
- Plant response rating, Giant foxtail (giant foxtail; PREEMERGENCE, Rate 50 g/ha): 4
- Plant response rating (0 to 100), Duck salad (duck salad; POSTEMERGENCE section, flood test, Rate 1 g/ha): 0
- Plant response rating (0 to 100), Duck salad (duck salad; POSTEMERGENCE section, flood test, Rate 4 g/ha): 0
- Plant response rating (0 to 100), Duck salad (duck salad; Rate 16 g/ha, under POSTEMERGENCE head (flood test species)): 30
- Plant response rating Duck salad (duck salad; flood test species listed under POSTEMERGENCE, 62 g/ha, 0 to 100 scale): 60
- Plant response rating, Sugar beet (sugar beet; 62 g/ha, 0 to 100 scale): 100
- Plant response rating (0 to 100), Sugar beet (sugar beet; Rate 1 g/ha): 80
- Plant response rating (0 to 100), Sugar beet (sugar beet; Rate 4 g/ha): 100
- Plant response rating (0 to 100), Sugar beet (sugar beet; Rate 16 g/ha): 100
- Plant response rating, Soybean (soybean; 62 g/ha, 0 to 100 scale): 90
- Plant response rating (0 to 100), Soybean (soybean; Rate 1 g/ha): 20
- Plant response rating (0 to 100), Soybean (soybean; Rate 4 g/ha): 50
- Plant response rating (0 to 100), Soybean (soybean; Rate 16 g/ha): 70
- Plant response rating Ryegrass (ryegrass; 62 g/ha, 0 to 100 scale): 40
- Plant response rating (0 to 100), Ryegrass (ryegrass; Rate 1 g/ha): 10
- Plant response rating (0 to 100), Ryegrass (ryegrass; Rate 4 g/ha): 20
- Plant response rating (0 to 100), Ryegrass (ryegrass; Rate 16 g/ha): 30
- Plant response rating, Corn (corn; POSTEMERGENCE, Rate 10 g/ha): 3
- Plant response rating (0 to 10 scale), Corn (corn; POSTEMERGENCE, Rate 50 g/ha): 4
- Plant response rating, Corn (corn; PREEMERGENCE, Rate 50 g/ha): 0
- Plant response rating, Wild buckwheat (wild buckwheat [4]; 62 g/ha, 0 to 100 scale): 95
- Plant response rating (0 to 100), Wild buckwheat (wild buckwheat [4]; Rate 1 g/ha): 30
- Plant response rating (0 to 100), Wild buckwheat (wild buckwheat [4]; Rate 4 g/ha): 60
- Plant response rating (0 to 100), Wild buckwheat (wild buckwheat [4]; Rate 16 g/ha): 90
- Plant response rating Barley Igri (barley; 62 g/ha, 0 to 100 scale): 50
- Plant response rating (0 to 100), Barley Igri (barley; Rate 1 g/ha): 20
- Plant response rating (0 to 100), Barley Igri (barley; Rate 4 g/ha): 30
- Plant response rating (0 to 100), Barley Igri (barley; Rate 16 g/ha): 30
- Plant response rating, Cheatgrass (cheatgrass; POSTEMERGENCE, Rate 10 g/ha): 4
- Plant response rating (0 to 10 scale), Cheatgrass (cheatgrass; POSTEMERGENCE, Rate 50 g/ha): 5
- Plant response rating, Cheatgrass (cheatgrass; PREEMERGENCE, Rate 10 g/ha): 2
- Plant response rating, Cheatgrass (cheatgrass; PREEMERGENCE, Rate 50 g/ha): 5
